Test results: publication doi:10.1101/2023.10.19.563029v1 (bioRxiv, 2023)
Where no end group is shown, it is not given here.

Experiments:
[1] = in humans; background statement, no reference given; cited from earlier work
[2] = In vivo disappearance of GLP-1; parameters: species or system male C57Bl6/JRj mice; conditions: 800 fmol into vena cava, n=4
[3] = In vivo disappearance of GLP-1; parameters: species or system male C57Bl6/JRj mice; conditions: 800 fmol i.v. tail vein; sitagliptin 10 mg/kg oral 30 min before; Alpco kit; n=5
[4] = estimated, after secretion; ref [2]; cited from earlier work
[5] = tested on: intact GLP-1; assay type: in vivo, male C57Bl/6JRj mice
[6] = tested on: blood glucose; test: Blood glucose during OGTT with in vivo enzyme inhibition; parameters: species or system male C57Bl/6JRj mice; conditions: valine pyrrolidide only, mean [95% CI], p=0.0023

GLP-1(9–36)NH2 (EGTFTSDVSSYLEGQAAKEFIAWLVKGR-NH2; UniProt P01275 100-127, looked up, fragment)
plasma half-life [1]: about 5 min

CC[C@H](C)[C@H](NC(=O)[C@H](Cc1ccccc1)NC(=O)[C@H](CCC(=O)O)NC(=O)[C@H](CCCCN)NC(=O)[C@H](C)NC(=O)[C@H](C)NC(=O)[C@H](CCC(N)=O)NC(=O)CNC(=O)[C@H](CCC(=O)O)NC(=O)[C@H](CC(C)C)NC(=O)[C@H](Cc1ccc(O)cc1)NC(=O)[C@H](CO)NC(=O)[C@H](CO)NC(=O)[C@@H](NC(=O)[C@H](CC(=O)O)NC(=O)[C@H](CO)NC(=O)[C@@H](NC(=O)[C@H](Cc1ccccc1)NC(=O)[C@@H](NC(=O)CNC(=O)[C@H](CCC(=O)O)NC(=O)[C@H](C)NC(=O)[C@@H](N)Cc1c[nH]cn1)[C@@H](C)O)[C@@H](C)O)C(C)C)C(=O)N[C@@H](C)C(=O)N[C@@H](Cc1c[nH]c2ccccc12)C(=O)N[C@@H](CC(C)C)C(=O)N[C@H](C(=O)N[C@@H](CCCCN)C(=O)NCC(=O)N[C@@H](CCCNC(=N)N)C(N)=O)C(C)C [GLP-1(7–36)NH2]
half-life, control ([2]; isoflurane-sedated mice, no inhibitors): 0.79 min
half-life, sitagliptin ([2]; isoflurane-sedated mice, sitagliptin 30 min before): 1.35 min
initial peak plasma value, sitagliptin only ([2]; sitagliptin 30 min before): ~50 pmol/L
calculated half-life, sitagliptin [3]: 1.53 min
share of intact GLP-1 that reaches the systemic circulation [4]: 7-8%

N[C@@H](CC(=O)N1CCn2c(nnc2C(F)(F)F)C1)Cc1cc(F)c(F)cc1F [sitagliptin, Sitagliptin]
intact GLP-1 level after the OGTT, at 5 minutes ([5]; oral sitagliptin 10 mg/kg 30 min before OGTT, Alpco kit, mean ± SD, n=6, SD): 10.9 ± 3.9 pmol/L

CCOC(=O)[C@H](C)C[C@@H](Cc1ccc(-c2ccccc2)cc1)NC(=O)CCC(=O)O [sacubitril]
difference in AUC of intact GLP-1 versus control ([5]; sacubitril alone, oral 0.3 mg/kg, 30 min before OGTT, mean [95% CI], p>0.99, n=6): 4.0 pmol/L/min

CC(C)[C@H](N)C(=O)N1CCCC1 [valine pyrrolidide]
suppression in the rise of glucose at 20 minutes (difference versus control) [6]: -6.2 mmol/L
intact GLP-1 level after the OGTT ([5]; i.p. valine pyrrolidide 15 mg/kg 30 min before OGTT, Alpco kit, mean ± SD, n=5, SD): 5.1 ± 0.9 pmol/L
intact GLP-1 level after the OGTT, at 10 minutes ([5]; oral valine pyrrolidide 20.6 mg/kg 30 min before OGTT, Alpco kit, mean ± SD, n=5, SD): 9.2 ± 6.3 pmol/L
